Results taken from PMC5791048 (Journal of Natural Products, 2017).

Experiment: A549 cytotoxicity assay
Type: cell-based
Settings: human, A549 cells (human lung carcinoma)

Row | Compound | IC50 at 72 h [µg/mL]
1 | C=C(C)[C@@H]1CC(=O)[C@H]2[C@H](C1)[C@@H]1C(=O)O[C@@H]3C[C@]4(C)O[C@H]2C(=O)[C@@H]4[C@H]13 [ineleganolide (7), ineleganolide] | > 50
2 | C=C(C)[C@@H]1/C=C/[C@]23O[C@H]2[C@H](C[C@@]2(C)O[C@@H]2C2=CC(C=O)=C(C1)O2)OC3=O [keikipukalide A (1), keikipukalide A] | > 50
3 | C=C(C)[C@H]1CC2=C(C=O)C=C(O2)[C@H]2O[C@]2(C)C[C@@H]2OC(=O)/C(=C\[C@H]1OC(C)=O)[C@H]2OC(C)=O [keikipukalide B (2), keikipukalide B] | > 50
4 | C=C(C)[C@@H]1C/C=C2\C(=O)O[C@@H](C[C@@]3(C)O[C@@H]3C3=CC(C=O)=C(C1)O3)[C@@H]2OC(C)=O [keikipukalide C (3), keikipukalide C] | > 50
5 | C=C(C)[C@@H]1/C=C/[C@]23O[C@H]2[C@H](C[C@](C)(O)[C@@H](OC(C)=O)C2=CC(C=O)=C(C1)O2)OC3=O [keikipukalide D (4), keikipukalide D] | > 50
6 | C=C(C)[C@H]1CC2=C(C=O)C=C(O2)[C@H]2O[C@]2(C)C[C@H]2C=C(C(=O)O2)[C@@H](OC(C)=O)C1 [keikipukalide E (5), keikipukalide E] | > 50
7 | C=C(C)[C@@H]1CCC2=C[C@H](C[C@@]3(C)O[C@@H]3C3=CC(C=O)=C(C1)O3)OC2=O [pukalide aldehyde (6), pukalide aldehyde] | > 50
